Legend:
[1] = tested on: normal human dermal fibroblasts (NHDF); assay: Resazurin based cytotoxicity assay in NHDF; type: cell-based; conditions: 24 h and 48 h, 0.03 µM to 200 µM
Experimental: The effect of compound (I-1) on mitochondria biosynthesis was investigated in normal human dermal fibroblasts (NHDF). NHDF were obtained from PromoCell (Lot No. 006151; donor; from eyelid skin) and cultivated in Fibroblast Growth Medium (PromoCell; Cat. No. C-023020) supplemented with Supplement Mix (PromoCell; Cat. No. C-039215) at 37 °C /5% CO2. NHDF were seeded in flat-bottom 96-well plates (5000 cells / well) and incubated in said medium for 24 h or 48 h, respectively, with the compounds present in concentrations ranging from 0.03 µM to 200 µM. Mitochondria content was analyzed using the Mito-ID® Green Detection Kit for fluorescence microscopy (Enzo Life Sciences; Cat. No. ENZ-51055-K500). Fluorometric analysis was done using a Spectramax plate reader (Molecular Devices) and following the manufacturer's protocol. Cytotoxicity was determined in parallel by fluorometric readout using the Resazurin Based In Vitro Toxicology Assay Kit (Sigma Aldrich, Cat. No. TOX-8), and following the manufacturer's protocol.

[2] = tested on: 5'-AMP-activated protein kinase (AMPK); assay: Western blot analysis of AMPK phosphorylation in NHEK; type: cell-based, human; conditions: 48 h;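 for P-AMPK: Chemiluminescence band density of P-AMPK measured with Multigauge software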
Sirt2 = molecular target: T1, Sirt2 (Homo sapiens, UniProt Q8IXJ6); assay: SIRT2 Fluorimetric Drug Discovery Kit, Sirt2 activation; type: biochemical
T1 construct: purchased BioMol, Hamburg, Germany
T1 sequence (Q8IXJ6 1-389): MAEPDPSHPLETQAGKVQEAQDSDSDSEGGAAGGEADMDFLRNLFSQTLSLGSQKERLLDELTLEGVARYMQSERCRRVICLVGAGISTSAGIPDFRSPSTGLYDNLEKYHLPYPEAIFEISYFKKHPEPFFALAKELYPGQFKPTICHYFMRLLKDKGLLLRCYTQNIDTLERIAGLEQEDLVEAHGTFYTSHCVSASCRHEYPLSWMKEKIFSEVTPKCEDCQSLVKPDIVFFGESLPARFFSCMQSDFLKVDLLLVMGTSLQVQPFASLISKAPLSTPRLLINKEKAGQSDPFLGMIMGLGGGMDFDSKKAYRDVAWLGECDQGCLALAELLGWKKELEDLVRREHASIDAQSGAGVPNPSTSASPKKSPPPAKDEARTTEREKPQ

[3] = tested on: normal human epidermal keratinocytes (NHEK); assay: MTT reduction assay, cytotoxicity in NHEK; type: cell-based
Experimental: Culture conditions: 37 °C, 5 % CO2. Culture medium: Keratinocyte-SFM (serum-free medium) containing human recombinant epidermal growth factor (EGF 1-53) 0.25 ng/mL and bovine pituitary extract 25 µg/mL (Gibco; Cat. No. 17005-075), supplemented with gentamycin 25 µg/mL. Assay medium: Keratinocyte-SFM (Gibco; Cat. No. 10744-019), supplemented with gentamycin 25 µg/mL.
NHEK were seeded in 24-well plates (30.000 cells / well) and cultured in culture medium for 24 h and then in assay medium for another 24 h. Medium was then removed and replaced by assay medium containing the respective test compound or reference in defined concentrations.
Cytotoxicity was determined using the 3-(4,5-dimethylthiazol-2-yl)-2,5-diphenyltetrazoliumbromid (MTT) reduction assay (sse T. Mosmann (1983) J. Immunol. Methods. 65, pp. 55-63).

[4] = Experiment 1, Membrane 1, 10 µM
[5] = Experiment 1, Membrane 1, 30 µM

remaining activity at 0.3 µM (Sirt2; Example 2, Table 4, 0.3 µM, read-out: Activity [% control]): 114%
remaining activity at 1 µM (Sirt2; Example 2, Table 4, 1.0 µM, read-out: Activity [% control]): 142%
remaining activity at 3 µM (Sirt2; Example 2, Table 4, 3.0 µM, read-out: Activity [% control]): 204%
remaining activity at 10 µM (Sirt2; Example 2, Table 4, 10.0 µM, read-out: Activity [% control]): 530%
remaining activity at 30 µM (Sirt2; Example 2, Table 4, 30.0 µM, read-out: Activity [% control]): 914%
EC300 (Sirt2; Example 2, Table 6, Sirt2): 4.9 µM
SMILES: CCOC(=O)c1c(O)cccc1/C=C/c1ccc(OCC)cc1 [(I-1)]
cytotoxicity or loss of cell viability [1]: no cytotoxicity or loss of cell viability
AMPK phosphorylation [% Control] ([2]; Experiment 1, Membrane 1, 3 µM): 60 % Control
P-AMPK ([2]; Experiment 1, Membrane 1, 3 µM): 123 AU/mm^2
Ratio P-AMPK/ GAPDH ([2]; Experiment 1, Membrane 1, 3 µM): 0.26
AMPK phosphorylation [% Control] [2, 4]: 90 % Control
P-AMPK [2, 4]: 202 AU/mm^2
Ratio P-AMPK/ GAPDH [2, 4]: 0.38
AMPK phosphorylation [% Control] [2, 5]: 1006 % Control
P-AMPK [2, 5]: 2554 AU/mm^2
Ratio P-AMPK/ GAPDH [2, 5]: 4.26
cytotoxicity against NHEK [3]: no cytotoxicity

Source: patent EP2801357A1, “Carboxylated stilbenes for activating AMPK and sirtuins” (IMD Natural Solutions GmbH, priority 2013, dated 2014)
